Laboratory results: publication PMC10548421, “Anticancer Potential of Diruthenium Complexes with Bridging Hydrocarbyl Ligands from Bioactive Alkynols” (Inorganic Chemistry, 2023)

Legend:
[1] = Octanol/water partition coefficient, shake-flask with UV–vis; type: physicochemical; conditions: 21 °C
Description: Partition coefficients (Pow), defined by the formula Pow = corg/caq, wherein corg and caq denote the molar concentrations of the specific compound in octanol and aqueous phases, respectively, were obtained using the shake-flask method with UV–vis measurements, following a previously described procedure (Table 3).[98] All the operations were carried out at 21 ± 1 °C. The wavelength corresponding to the maximum absorption of each compound within the range 350–430 nm was employed for quantifying using UV–vis techniques.

[2] = tested on: MCF-7 breast adenocarcinoma cell line; assay: MTT in vitro cytotoxicity, MCF-7; type: cell-based, human; conditions: incubation 24 h, mean ± SD
Description: (§1) The cytotoxicity assessment was conducted on various human cancer cell lines, including A2780 ovarian carcinoma, A2780R cisplatin-resistant ovarian carcinoma, MCF-7 breast, HOS osteosarcoma, A549 epithelial lung, PANC-1 pancreatic, Caco-2 colorectal, PC-3 prostate adenocarcinoma, and HeLa cervical cell lines. Additionally, the assessment extended to a normal human fetal fibroblast cell line (MRC-5). Cells were obtained from ATCC collection and cultivated according to the producer’s instructions. Stock solutions of the compounds were prepared in DMF immediately before application, and diluted with H2O to achieve the final concentration of 0.1% v/v DMF.[99] The culture media were enriched with 10% fetal calf serum. Subsequently, the cells were exposed to the tested compounds, vehicle (0.1% v/v DMF) and Triton X-100 (1% v/v), during incubation. The conventional MTT assay was carried out following different incubation periods (Tables 5-6). The absorbance was measured at 570 nm by using a spectrophotometer (Infinite M200, Schoeller Instruments, Prague, Czech Republic). The obtained data are presented as the percentage of cell viability with 100% representing negative control treatment (0.1% v/v DMF) and 0% representing the positive control (Triton X-100). The half-maximal inhibitory concentrations (IC50) were determined from dose–response curves using GraphPad Prism 6 software (GraphPad Software, San Diego, USA).

[3] = tested on: PANC-1 human pancreatic carcinoma cell line; assay: MTT in vitro cytotoxicity, PANC-1; type: cell-based; conditions: incubation 24 h, mean ± SD
Description: as §1

[4] = target: bovine serum albumin (BSA) (Bos taurus, UniProt P02769); assay: Interaction with BSA (MALDI-TOF MS); type: binding; conditions: BSA 30 μM, complex 1 mM, 48 h at 37 °C
bovine serum albumin (BSA), sequence (P02769 25-607): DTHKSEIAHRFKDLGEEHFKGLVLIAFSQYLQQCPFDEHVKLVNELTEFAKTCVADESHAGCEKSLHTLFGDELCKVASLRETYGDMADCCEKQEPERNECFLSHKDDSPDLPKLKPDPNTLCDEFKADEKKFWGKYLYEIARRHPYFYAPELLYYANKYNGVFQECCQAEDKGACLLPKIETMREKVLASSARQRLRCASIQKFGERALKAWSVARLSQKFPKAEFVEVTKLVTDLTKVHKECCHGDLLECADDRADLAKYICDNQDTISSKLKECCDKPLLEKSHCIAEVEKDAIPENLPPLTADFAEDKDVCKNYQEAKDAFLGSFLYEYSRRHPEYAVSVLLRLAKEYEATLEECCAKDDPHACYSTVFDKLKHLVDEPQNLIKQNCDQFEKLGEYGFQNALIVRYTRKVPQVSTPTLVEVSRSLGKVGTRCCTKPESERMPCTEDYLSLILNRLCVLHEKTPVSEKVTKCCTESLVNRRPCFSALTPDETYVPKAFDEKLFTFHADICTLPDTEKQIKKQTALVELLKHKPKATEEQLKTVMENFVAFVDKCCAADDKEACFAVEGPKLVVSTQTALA
Description: Bovine serum albumin (BSA, 30 μM in 50 mM NH4HCO3) was incubated with the selected complexes (3a or 3b, 1 mM) at 37 °C for 48 h. Each complex was preliminarily dissolved in 50 μL of methanol. Following the incubation, an aliquot of the protein was adsorbed by repeated aspiration and release (20 times, 10-μL volume) into a ZipTip-C4 pipet tip (Merck, Darmstadt, Germany) that had been pre-equilibrated in 0.1% trifluoroacetic acid (TFA), washed by the equilibrating solution, and eluted into 10 μL of 70% acetonitrile containing 0.1% TFA. The eluate was subsequently subjected to evaporation using a vacuum centrifuge, and the residue was dissolved in 3 μL of 0.1% TFA. A 1 μL aliquot of this solution was deposited on an MSP Big Anchor 96 target plate (Bruker Daltonik, Bremen, Germany), onto which 1 μL of the matrix solution (sinapinic acid, 12 mg/mL in 0.1% TFA and 50% acetonitrile) was immediately superimposed. The sample was then allowed to dry. Mass spectra were acquired using a Microflex LRF20 MALDI-TOF mass spectrometer operated in a linear positive ion mode and controlled using flexControl 3.4 software from Bruker Daltonik). Protein Standard II, from Bruker Daltonik, was used for external calibration. All spectra were subjected to processing by using flexAnalysis 3.4 software from Bruker Daltonik.

[5] = tested on: A2780 cells; assay: Cell cycle analysis (flow cytometry, PI); type: cell-based, human; conditions: A2780, 4 μM, 24 h
Description: (§2) The A2780 ovarian carcinoma cell line was received from Merck (reference 93112519–1VL) and cultured at 37 °C in an environment with 5% CO2. The cultivation was carried out in complete cell culture medium (RPMI-1640 medium, Merck), which was supplemented with 10% fetal bovine serum (FBS, Merck), 1% L-glutamine (Merck) and 1% penicillin–streptomycin–neomycin (PSN, Merck). For the flow cytometry experiments, three independent duplicates were analyzed using a BD FACSVerse flow cytometer (Becton Dickinson, USA). At least 5 × 10^3 events were recorded for each sample. The same procedure was replicated for the experiments described below. Solutions of the complexes were formulated using the stock solutions (Section 5.1).
These studies were conducted on A2780 cells using the BD Cycletest Plus DNA kit (from Becton Dickinson, USA). Thus, cells were seeded in 96-well plates (10^4 cells/well) and treated with 4 μM complexes 3a and 3b for 24 h. Following the incubation period, cells underwent a series of procedural steps. Initially, they were rinsed using PBS (0.1 M, pH 7.4). […]

[6] = tested on: A2780 cells; assay: ROS production assessment (ROS-ID); type: cell-based, human; conditions: A2780, 4 μM, 24 h
Description: as §2
ROS-ID Total ROS/Superoxide detection kit (from Enzo Life Sciences, US) was employed to quantify ROS and superoxide generation in A2780 cells following the treatment with the tested compounds. Thus, cells were seeded in a 96-well plate (10^4 cells/well) and incubated with 4 μM solution of complexes for 24 h. A 100 μM solution of pyocyanin, which is a known oxidative-stress inducer, was used as a positive control. […] Finally, a microplate reader Infinite M200Pro (Tecan, Switzerland) was used to measure sample fluorescence (green: Ex. 488 nm/Em. 520 nm, and red: Ex. 550 nm/Em. 610 nm) and three independent experiments were done in triplicates.

[7] = tested on: A2780 cells; assay: Mitochondrial membrane potential analysis (MITO-ID); type: cell-based, human; conditions: A2780, complexes 4 μM, cisplatin 15 μM, 24 h
Description: as §2
To investigate the effects on mitochondrial membrane potential of A2780 cells, an MITO-ID Membrane potential detection kit (Enzo Life Sciences, USA) was used. Cells were seeded in a 24-well (5 × 10^4 cells/well), and then incubated with 4 μM solution of complexes for 24 h. The supernatant was collected, cells were washed with warm PBS, detached using 0.25% trypsin-EDTA (Gibco) and resuspended in a cell culture medium. Then, samples were stained with diluted MITO-ID MP Detection Reagent (according to the protocol) at RT for 15 min, prior to flow cytometry analysis. A positive control was established by treating the samples with 2 μM carbonyl cyanide 3-chlorophenylhydrazone.

SMILES | Log Pow [1] | IC50 [2] | IC50 [3] | mass variation of adduct with respect to BSA [4] | effect on the cell cycle (in words) [5] | intracellular ROS levels (in words) [6] | cell count with damaged mitochondrial membranes (in words) [7]
F[B-](F)(F)F.O=[C]=[Ru+]1([CH]2C=CC=C2)[C](=O)[Ru]1(=[C]=O)([CH]=C=C1CCCC1)[CH]1C=CC=C1 (centres unmarked) [3a, [Ru2Cp2(CO)3{μ–η^1:η^2-CH=C=(cyclopentylidene)}]BF4] | –0.54 ± 0.02 | 16.2 ± 1.7 µM | 28.4 ± 3.9 µM | 3434 Da | strong depression of the cell number in the synthetic (S) phase and second gap and mitotic phases (G2/M) | noteworthy elevation of intracellular ROS levels | notable augmentation
CC12CCC3c4ccc(O)cc4CCC3C1CCC2=C=[CH][Ru]1(=[C]=O)([CH]2C=CC=C2)[C](=O)[Ru+]1(=[C]=O)[CH]1C=CC=C1.F[B-](F)(F)F (mixture of isomers) [3b, [Ru2Cp2(CO)3{μ–η^1:η^2-CH=C=(estradiolylidene)}]BF4] | 1.24 ± 0.16 | 11.6 ± 1.5 µM | 19.8 ± 2.3 µM | 483 Da | strong depression of the cell number in the synthetic (S) phase and second gap and mitotic phases (G2/M) | no appreciable effect | notable augmentation
